Measured values taken from paper PMC7504092, “Synthesis and Antiplasmodial Evaluation of 4-Carboxamido- and 4-Alkoxy-2-Trichloromethyl Quinazolines” (Molecules, 2020).
Like-named read-outs stand apart in the source and are kept apart here.

How the values were obtained:
HepG2 cell line = system: HepG2 cell line; design: method as in earlier work; settings: previously described compounds; ref 9 (A), 10 (B), 11 (C), 12 (series D); read-out: Cytotoxicity CC50 HepG2; cited from earlier work
K1 P. falciparum strain [1] = settings: previously described compounds; ref 9 (A), 10 (B), 11 (C), 12 (series D); read-out: Antiplasmodial activity EC50 P. falciparum K1; cited from earlier work
W2 P. falciparum = system: W2 P. falciparum; design: method as in PMID 21741131; settings: W2 strain; cited from earlier work
K1 P. falciparum strain [2] = assay: In vitro antiplasmodial evaluation (SYBR Green I fluorescence-based method); format: cell-based; settings: for SI (selectivity index = CC50/EC50): CC50 HepG2 / EC50 PfK1; for EC50: Plasmodium falciparum, K1, 72 h, multi-resistant K1 P. falciparum strain, 72 h incubation, read-out: PfK1 EC50
Experimental: It was maintained in continuous culture as described previously by Trager and Jensen. […] Parasitemia was maintained daily at between 1 and 3%. The P. falciparum drug susceptibility test was carried out by comparing quantities of DNA in treated and control cultures of parasite in human erythrocytes according to an SYBR Green I fluorescence-based method using a 96-well fluorescence plate reader. […] Duplicate assays were performed for each sample. After incubation, plates were frozen at -20 °C for 24 h. […] Fifteen μL of each sample were transferred to 96-well flat bottom non-sterile black plates (Greiner Bio-one) already containing 15 μL of the SYBR Green I lysis buffer (2X SYBR Green I, 20 mM Tris base pH 7.5, 20 mM EDTA, 0.008% w/v saponin, 0.08% w/v Triton X-100).

[3] = Solubility of the tested molecule in the culture medium; format: physicochemical; settings: culture medium of the cytotoxicity test
Experimental: HepG2 cell line was maintained at 37 °C, 5% CO2, at 90% humidity in […] supplemented with 10% fetal bovine serum, 1% L-glutamine (200 mM) and penicillin (100 U/mL)/streptomycin (100 µg/mL) (complete RPMI medium). The cytotoxicity of the tested molecules on the HepG2 (hepatocarcinoma cell line purchased from ATCC, ref HB-8065) cell line was assessed according to the method of Mosmann with slight modifications. Briefly, 5.10^3 cells in 100 µL of complete medium were inoculated into each well of 96-well plates and incubated at 37 °C in humidified 5% CO2. After 24 h incubation, 100 μL of medium with various product concentrations dissolved in DMSO (final concentration less than 0.5% v/v) were added and the plates were incubated for 72 h at 37 °C. Triplicate assays were performed for each sample. Each plate-well was then microscope-examined for possible precipitate formation before the medium was aspirated from the wells. 100 μL of MTT (3-(4,5-dimethyl-2-thiazolyl)-2,5-diphenyl-2H-tetrazolium bromide) solution (0.5 mg/mL in medium without FBS) were then added to each well. Cells were incubated for 2 h at 37 °C. After this time, the MTT solution was removed and DMSO (100 μL) was added to dissolve the resulting blue formazan crystals. Plates were shaken vigorously (700 rpm) for 10 min. The absorbance was measured at 570 nm with 630 nm as reference wavelength using a BIO-TEK ELx808 Absorbance Microplate Reader (LabX, Midland, ON, Canada). DMSO was used as blank and doxorubicin (purchased from Sigma Aldrich) as positive control. Cell viability was calculated as percentage of control (cells incubated without compound). […] CC50 values represent the mean value calculated from three independent experiments.

[4] = In vitro cytotoxicity evaluation (MTT); format: cell-based; settings: human
Experimental: Triplicate assays were performed for each sample. Each plate-well was then microscope-examined for possible precipitate formation before the medium was aspirated from the wells. 100 μL of MTT (3-(4,5-dimethyl-2-thiazolyl)-2,5-diphenyl-2H-tetrazolium bromide) solution (0.5 mg/mL in medium without FBS) were then added to each well. […] After this time, the MTT solution was removed and DMSO (100 μL) was added to dissolve the resulting blue formazan crystals. Plates were shaken vigorously (700 rpm) for 10 min. The absorbance was measured at 570 nm with 630 nm as reference wavelength using a BIO-TEK ELx808 Absorbance Microplate Reader (LabX, Midland, ON, Canada). DMSO was used as blank and doxorubicin (purchased from Sigma Aldrich) as positive control. Cell viability was calculated as percentage of control (cells incubated without compound). […] CC50 values represent the mean value calculated from three independent experiments.

EC50 (K1 P. falciparum strain [2]) [µM] | melting point [°C] | SMILES | CC50 (HepG2 cell line) [µM] | EC50 (K1 P. falciparum strain [1]) [µM] | activity against W2 P. falciparum (in words) (W2 P. falciparum) | SI (selectivity index = CC50/EC50) (K1 P. falciparum strain [2]) | solubility (in words) [3] | CC50 at 72 h [4] [µM]
 |  | Fc1ccc(-c2nc(C(Cl)(Cl)Cl)nc3ccccc23)cc1 [A, 4-(4′-fluorophenyl)-2-trichloromethylquinazoline] | > 125 | 2.5 |  |  |  | 
 |  | Oc1nc(C(Cl)(Cl)Cl)nc2ccccc12 [2-(trichloromethyl)quinazolin-4-ol] |  |  | not active |  |  | 
4.9 | 171 | CCC(=O)Nc1nc(C(Cl)(Cl)Cl)nc2ccccc12 [Molecule 21, N-(2-Trichloromethylquinazolin-4-yl)propionamide] |  |  |  | >12.8 | lack of solubility | > 62.5
14.5 | 214 | O=C(Nc1nc(C(Cl)(Cl)Cl)nc2ccccc12)c1ccccn1 [Molecule 17, N-(2-Trichloromethylquinazolin-4-yl)picolinamide] |  |  |  | >0.5 | lack of solubility | > 7.8
 |  | O=[N+]([O-])c1ccc(COc2nc(C(Cl)(Cl)Cl)nc3ccccc23)cc1 [C] | 19.4 | 1.8 |  |  |  | 
